What was measured:
Tie2(h) = Tie2(h) (Homo sapiens, UniProt Q02763); assay: Protein kinase inhibition assay; assay type: biochemical; conditions: for remaining activity at 2.5 µM: read-out: percent residual activity of Tie2(h)
Method: (§1) Certain compounds were tested for activity in protein kinase inhibition assays. All substrates were dissolved and diluted to working stocks in de-ionized water, apart from histone H1 (10× working stock in 20 mM MOPS pH 7.0), PDKtide (10× working stock in 50 mM Tris pH 7.0) ATF2 (which is typically stored at a 20× working stock in 50 mM Tris pH 7.5, 150 mM NaCl, 0.1 mM EGTA, 0.03% Brij-35, 50% glycerol, 1 mM benzamidine, 0.2 mM PMSF and 0.1% R-mercaptoethanol), KKLNRTLSFAEPG (SEQ ID NO:203) and RRRLSFAEPG (SEQ ID NO:204) (50 mM HEPES pH 7.4) and GGEEEEYFELVKKKK (SEQ ID NO:205) (20 mM MOPS pH 7.0). All kinases were pre-diluted to a 10× working concentration prior to addition into the assay. The composition of the dilution buffer for each kinase is detailed below.
(§2) In a final reaction volume of 25 μl, Tie2 (h) (5-10 mU) is incubated with 8 mM MOPS pH 7.0, 0.2 mM EDTA, 0.5 mM MnCl2, 0.1 mg/ml poly(Glu, Tyr) 4:1, 10 mM MgAcetate and [gamma-33P-ATP] (specific activity approx. 500 cpm/pmol, concentration as required). The reaction is initiated by the addition of the MgATP mix. After incubation for 40 minutes at room temperature, the reaction is stopped by the addition of 5 μl of a 3% phosphoric acid solution. 10 μl of the reaction is then spotted onto a Filtermat A and washed three times for 5 minutes in 75 mM phosphoric acid and once in methanol prior to drying and scintillation counting.

EphA2(h) = EphA2(h) (Homo sapiens, UniProt P29317); assay: Protein kinase inhibition assay; assay type: biochemical; conditions: read-out: percent residual activity of EphA2(h)
Method: as §1
as §2, with “EphA2” for “Tie2”, “EDTA,” for “EDTA, 0.5 mM MnCl2,”

nucleolin/8749NT = molecular target: T1, nucleolin/8749NT (Homo sapiens, UniProt P19338); assay: EMSA, interference with nucleolin/nucleic acid ligand interaction; assay type: binding; parameters: key to Activity of Compound A-1 (relative interference), ligand 8749NT: +: least interference by compound A-1; ++++: greatest interference by compound A-1
T1 construct: without the N-terminal acidic stretches domain
Method: The following assays assessed effects of compounds on interactions between nucleolin and nucleic acid ligands capable of forming quadruplex (QP) and hairpin (HP) secondary structures. Nucleic acid ligands tested were a cMyc QP DNA having nucleotide sequence 5′-[…]-3′ (SEQ ID NO: 176) and a HP pre-rRNA region to which nucleolin binds, having the sequence 5′-[…]-3′ (SEQ ID NO: 177). In the assays, recombinant nucleolin (˜250 nM), which was fused to maltose binding protein and had the sequence under accession number NM_005381 without the N-terminal acidic stretches domain, was incubated with each of the two ^32P-labeled nucleic acid ligands (10 or 250 nM). Nucleolin and the nucleic acid ligand were incubated in the presence or absence of a test compound of Formula A-1, B-1, C-6 or C-7 in an incubation buffer (12.5 mM Tris, pH 7.6, 60 mM KCl, 1 mM MgCl2, 0.1 mM EDTA, 1 mM DTT, 5% glycerol, 0.1 mg/ml BSA) for 30 minutes at room temperature. Structures for A-1 and B-1 are shown above and structures for C-6 and C-7 are shown hereafter: [drawing 17] […]
The assay also was conducted in a filter-binding format. […] Radioactivity was assayed with MicroBeta scintillation counter (Perkin Elmer). Binding curves were constructed and apparent Kd's and Bmax's for the complexes were calculated using the GraphPad Prizm software program (GraphPad Software). […]

[1] = molecular target: T2, nucleolin/nucleic acid ligand (Homo sapiens, UniProt P19338); assay: EMSA, interference with nucleolin/nucleic acid ligand interactions (ligands derived from human ribosomal DNA); assay type: binding
T2 construct: without the N-terminal acidic stretches domain
Method: The following assays assessed effects of compounds on interactions between nucleolin and nucleic acid ligands capable of forming quadruplex (QP) and hairpin (HP) secondary structures. Nucleic acid ligands tested were a cMyc QP DNA having nucleotide sequence 5′-[…]-3′ (SEQ ID NO: 176) and a HP pre-rRNA region to which nucleolin binds, having the sequence 5′-[…]-3′ (SEQ ID NO: 177). In the assays, recombinant nucleolin (˜250 nM), which was fused to maltose binding protein and had the sequence under accession number NM_005381 without the N-terminal acidic stretches domain, was incubated with each of the two ^32P-labeled nucleic acid ligands (10 or 250 nM). Nucleolin and the nucleic acid ligand were incubated in the presence or absence of a test compound of Formula A-1, B-1, C-6 or C-7 in an incubation buffer (12.5 mM Tris, pH 7.6, 60 mM KCl, 1 mM MgCl2, 0.1 mM EDTA, 1 mM DTT, 5% glycerol, 0.1 mg/ml BSA) for 30 minutes at room temperature. Structures for A-1 and B-1 are shown above and structures for C-6 and C-7 are shown hereafter: [drawing 17] The resulting complexes were separated on a 6% DNA retardation gel using 0.5× TBE with 20 mM KCl as a running buffer (i.e., electrophoresis mobility shift assay (EMSA)).
The assay also was conducted using nucleic acid ligands derived from human ribosomal DNA. Sequences of these nucleic acids are shown in the preceding example. […]

[2] = test system: fibrillarin in A549 cells; assay: Cell fibrillarin localization (immunofluorescence); assay type: cell-based; conditions: protocol as for nucleolin
Method: An assay was conducted to determine the effect of ribosomal nucleic acid interacting compounds on cell nucleolin location. In these studies, A549 cells were plated in borosilicate chamber slides. The cells were treated with 10 uM compound A-1 the next day for two hours, washed with phosphate buffered saline, fixed for 10 minutes in 4% paraformaldehyde, permeabilized for 5 minutes in a 1:1 ethanol:acetone mix, incubated with a 1:100 dilution of an anti-nucleolin monoclonal antibody (catalog no. RDI-NUCLEOLabm; Research Diagnostics, Inc.) in 5% donkey serum, followed by incubation with a 1:100 diluted TRITC-labeled secondary anti-mouse antibody and observed under a fluorescence microscope (e.g., Olympus) in the TRITC channel at 600× magnification. […] Accordingly, nucleolin was redistributed from the nucleolus to the nucleoplasm in cells treated with a compound tested in the assay.
Another assay was conducted to determine the effect of ribosomal nucleic acid interacting compounds on cell fibrillarin location. These studies were conducted using a protocol similar to that described in the preceding paragraph, except an antibody that specifically bound to fibrillarin (catalog no. ab5821; Novus Biologicals, Inc.) was utilized.

Tie2(h), sequence (Q02763 23-1124): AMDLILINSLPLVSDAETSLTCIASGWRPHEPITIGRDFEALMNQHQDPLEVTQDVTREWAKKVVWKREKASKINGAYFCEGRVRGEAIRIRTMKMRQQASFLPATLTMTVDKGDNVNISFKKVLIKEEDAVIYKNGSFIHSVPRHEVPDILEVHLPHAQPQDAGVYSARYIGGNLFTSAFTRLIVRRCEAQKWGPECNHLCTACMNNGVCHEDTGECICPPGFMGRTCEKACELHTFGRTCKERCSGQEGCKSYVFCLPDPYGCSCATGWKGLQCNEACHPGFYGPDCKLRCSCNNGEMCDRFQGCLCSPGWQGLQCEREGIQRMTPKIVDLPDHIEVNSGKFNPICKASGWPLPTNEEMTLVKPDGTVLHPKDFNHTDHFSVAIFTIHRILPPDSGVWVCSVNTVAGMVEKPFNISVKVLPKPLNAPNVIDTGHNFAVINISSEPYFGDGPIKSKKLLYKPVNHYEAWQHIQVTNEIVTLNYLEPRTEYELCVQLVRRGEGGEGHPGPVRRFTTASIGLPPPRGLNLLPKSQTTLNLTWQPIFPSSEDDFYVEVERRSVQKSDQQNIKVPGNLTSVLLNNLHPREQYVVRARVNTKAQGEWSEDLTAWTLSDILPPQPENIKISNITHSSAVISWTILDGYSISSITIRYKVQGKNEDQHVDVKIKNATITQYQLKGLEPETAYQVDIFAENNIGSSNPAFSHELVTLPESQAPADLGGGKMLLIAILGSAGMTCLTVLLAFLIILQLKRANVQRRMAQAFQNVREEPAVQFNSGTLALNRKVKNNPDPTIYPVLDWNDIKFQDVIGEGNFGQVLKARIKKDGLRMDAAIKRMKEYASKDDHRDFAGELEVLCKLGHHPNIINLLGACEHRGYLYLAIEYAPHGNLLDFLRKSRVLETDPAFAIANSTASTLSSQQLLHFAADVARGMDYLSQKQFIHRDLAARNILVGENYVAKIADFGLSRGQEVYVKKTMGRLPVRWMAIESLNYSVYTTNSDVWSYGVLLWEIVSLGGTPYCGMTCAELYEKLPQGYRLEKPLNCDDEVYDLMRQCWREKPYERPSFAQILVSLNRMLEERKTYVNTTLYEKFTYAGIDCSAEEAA
EphA2(h), sequence (P29317 24-976): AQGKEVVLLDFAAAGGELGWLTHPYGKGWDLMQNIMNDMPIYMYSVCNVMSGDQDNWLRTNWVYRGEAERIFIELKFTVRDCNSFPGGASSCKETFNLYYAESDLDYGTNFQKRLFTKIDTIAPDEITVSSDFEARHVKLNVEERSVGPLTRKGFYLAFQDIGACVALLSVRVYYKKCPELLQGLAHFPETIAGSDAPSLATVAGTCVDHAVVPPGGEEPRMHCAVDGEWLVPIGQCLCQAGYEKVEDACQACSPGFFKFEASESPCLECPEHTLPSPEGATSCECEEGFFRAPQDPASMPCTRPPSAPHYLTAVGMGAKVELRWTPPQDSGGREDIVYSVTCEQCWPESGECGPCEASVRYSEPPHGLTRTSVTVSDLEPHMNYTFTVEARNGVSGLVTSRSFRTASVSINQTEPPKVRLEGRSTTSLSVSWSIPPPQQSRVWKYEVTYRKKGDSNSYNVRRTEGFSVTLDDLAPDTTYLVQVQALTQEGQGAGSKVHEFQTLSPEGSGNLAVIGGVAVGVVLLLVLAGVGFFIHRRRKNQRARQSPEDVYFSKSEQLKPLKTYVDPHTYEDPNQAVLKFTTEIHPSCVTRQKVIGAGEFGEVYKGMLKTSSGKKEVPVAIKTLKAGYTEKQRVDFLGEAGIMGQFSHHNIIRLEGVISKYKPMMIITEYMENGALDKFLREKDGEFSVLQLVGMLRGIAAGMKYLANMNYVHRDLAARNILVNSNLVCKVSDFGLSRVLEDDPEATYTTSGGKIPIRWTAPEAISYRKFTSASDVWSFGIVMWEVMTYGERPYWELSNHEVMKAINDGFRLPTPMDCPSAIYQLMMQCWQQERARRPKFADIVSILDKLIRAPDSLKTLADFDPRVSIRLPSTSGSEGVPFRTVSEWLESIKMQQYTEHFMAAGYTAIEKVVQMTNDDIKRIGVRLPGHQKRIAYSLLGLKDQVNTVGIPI
T1 sequence (P19338 284-710 limits assumed): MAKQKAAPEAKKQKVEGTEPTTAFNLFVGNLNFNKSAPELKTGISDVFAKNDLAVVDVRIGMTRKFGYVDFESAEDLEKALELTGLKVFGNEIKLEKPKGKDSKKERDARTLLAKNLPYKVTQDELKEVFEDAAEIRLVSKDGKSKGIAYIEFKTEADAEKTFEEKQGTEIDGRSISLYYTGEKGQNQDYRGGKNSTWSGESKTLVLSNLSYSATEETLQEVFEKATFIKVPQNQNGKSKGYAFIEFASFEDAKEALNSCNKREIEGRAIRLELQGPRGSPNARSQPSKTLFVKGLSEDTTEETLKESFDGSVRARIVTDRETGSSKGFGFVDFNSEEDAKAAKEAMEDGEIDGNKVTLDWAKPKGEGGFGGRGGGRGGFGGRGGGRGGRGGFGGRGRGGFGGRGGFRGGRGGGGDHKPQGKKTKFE
T2 sequence (P19338 284-710 limits assumed): as above

| remaining activity at 2.5 µM (Tie2(h)) [%] | remaining activity at 2.5 µM (EphA2(h)) [%] | Activity of Compound A-1 (relative interference), ligand 8749NT (nucleolin/8749NT) | IC50 (nucleolin/8749NT; ligand 8749NT, read-out: IC50, concentration of Compound A-1 required to dissociate half of the complexed nucleic acid ligand and nucleolin protein) [µM] | inhibition at 2.5 µM (Tie2(h)) [%] | Structure (SMILES) | interference with nucleolin/nucleic acid ligand interactions [1] | fibrillarin localization in treated cells [2] |
| --- | --- | --- | --- | --- | --- | --- | --- |
| 115 | 102 |  |  |  | CC(=O)N1CCN(c2ccc3c(=O)c(C(=O)NCCN4CCCC4)c4n(C)c5ccccc5n4c3n2)CC1 [Compound B-1] |  |  |
| 13 | 101 | + | 10 | > 80 | CN1CCCC1CCNC(=O)c1cn2c3c(c(N4CCC(c5cnccn5)C4)c(F)cc3c1=O)Oc1cc3ccccc3cc1-2 (stereo not drawn) [Compound A-1] | interfered with nucleolin/nucleic acid ligand interactions | caused redistribution of fibrillarin |
